Source: ChEMBL document CHEMBL5107981, “A comprehensive comparative study on LSD1 in different cancers and tumor specific LSD1 inhibitors” (Eur J Med Chem, 2022)

Tests used:
[1] = target: T1, Lysine-specific histone demethylase 1A (Homo sapiens, UniProt O60341)
Description: Inhibition of LSD1 (unknown origin)

[2] = Antiproliferative activity against human AML cell; assay type: functional, cell-based; settings: Acute myeloid leukemic cell
[3] = Antiproliferative activity against human SCLC cell; assay type: functional, cell-based; settings: Small cell lung cancer cell line
[4] = target: T1, Lysine-specific histone demethylase 1A; assay: Inhibition of recombinant LSD1 (unknown origin) incubated for 1 hr

`C/C(=N\NC(=O)c1cccc(S(=O)(=O)N2CCN(C)CC2)c1)c1cc(Cl)ccc1O` showed an IC50 [1] of 13 nM.
`O=C(O)c1ccc(CN2CCC(CN[C@@H]3C[C@H]3c3ccccc3)CC2)cc1` [GSK2879552] showed an IC50 [2] of 24 nM and an IC50 [3] of 24 nM.
`Oc1ccc(/C=C/c2cc(O)cc(O)c2)cc1` [RESVERATROL] showed an IC50 [4] of 15000 nM.
